Patent publication US12390470B2, “1-methylxanthine-based bioactive composition and method of use thereof” (Ingenious Ingredients, LP, priority 2021, dated 2025)

Key:
participants = test: Anxiety by Visual Analog Scale; assay type: in vivo, human; set-up: Anxiety (Visual Analog Scale) / Anxiety (VAS) MEAN (30-180) / Anxiety (VAS) Δ vs. CA: scale not given here
Method: All supplements were orally ingested with 8 fluid ounces of cold tap water. Anxiety was measured by Visual Analog Scale (VAS) at baseline, 30, 60, 90, 120 and 180 minutes after ingestion.

[1] = test system: Brain-derived neurotrophic factor (BDNF); test: BDNF level in young and old rats; assay type: in vivo
Method: (§1) Twenty-four young (6-8 Week) and twenty-four old (14-16 Months) Swiss Albino Wistar rats were housed in an animal room at a constant temperature (22±3° C.) and humidity (30%-70%) under a 12:12 h light-dark cycle with standard laboratory diet (Purina 5L79, Rat and Mouse 18% protein; PMI Nutrition International, Brentwood, MO, USA). Distilled water was provided ad libitum. All animal experiments were reviewed and approved by the Institutional Animal Ethical Committee (IAEC) of Radiant Research Services Pvt. Ltd (Bangalore, India). All research was conducted in accordance with the guidelines of the committee for the purpose of control and supervision of experiments on animals.
(§2) After one week of acclimation, the animals were randomly divided by body weight and age into six groups (n=8 per group in each test) for oral treatment once a day, at approximately same time each day (±1 hour), for 10 consecutive days: (1) vehicle control or (2) 1-methylxanthine or (3) 1-methylxanthine plus paraxanthine. The dose administered to the rat was calculated using US Food and Drug Administration for human equivalence doses (HED), assuming a human weight of 60 kg. […] Food intake was monitored daily while water intake was ad libitum. […] Body weight was recorded weekly. […]

dopamine = test: Dopamine level in young and old rats; assay type: in vivo; conditions: old rats
Method: as §1, §2

male Swiss Albino mice = test: Passive shock avoidance test, scopolamine-induced amnesia; assay type: in vivo
Method: Behavioral studies were conducted in mice to examine the learning and memory ability by using Cook's pole and Passive shock avoidance test.
as §1, with “8-week-old male” for “young (6-8 Week) and twenty-four old (14-16 Months)”, “mice” for “Wistar rats”
After one week of acclimation, the animals were randomly divided by body weight into three groups (n=8 per group in each test) for oral treatment once a day, at approximately same time each day (±1 hour), for 7 consecutive days: (1) vehicle control or (2) 1-methylxanthine or (3) 1-methylxanthine plus paraxanthine. The dose administered to the mice was calculated using US Food and Drug Administration for human equivalence doses (HED), assuming a human weight of 60 kg. […] Food intake was monitored daily while water intake was ad libitum. […]

## Cn1c(=O)[nH]c2nc[nH]c2c1=O [1-methylxanthine, 1-Methyl-3H-purine-2,6-dione]
participants; 200 mg oral
  lower feelings of anxiety in comparison to CA: 21%
participants; Average
  Anxiety (VAS) MEAN (30-180): 58.8
  Anxiety (VAS) Mean Δ from 0: +1.3
participants; Person one
  Anxiety (VAS) MEAN (30-180): 48.6
  Anxiety (VAS) Mean Δ from 0: −1.4
  Anxiety (VAS) Δ vs. CA: −26.0
participants; Person one, 30 min
  Anxiety (Visual Analog Scale): 51
participants; Person one, 60 min
  Anxiety (Visual Analog Scale): 40
participants; Person one, 90 min
  Anxiety (Visual Analog Scale): 40
participants; Person one, 120 min
  Anxiety (Visual Analog Scale): 51
participants; Person one, 180 min
  Anxiety (Visual Analog Scale): 61
participants; Person one, time 0, 200 mg oral
  Anxiety (Visual Analog Scale): 50
participants; Person two
  Anxiety (VAS) MEAN (30-180): 69.0
  Anxiety (VAS) Mean Δ from 0: +4.0
  Anxiety (VAS) Δ vs. CA: −5.2
participants; Person two, 30 min
  Anxiety (Visual Analog Scale): 65
participants; Person two, 60 min
  Anxiety (Visual Analog Scale): 65
participants; Person two, 90 min
  Anxiety (Visual Analog Scale): 65
participants; Person two, 120 min
  Anxiety (Visual Analog Scale): 75
participants; Person two, 180 min
  Anxiety (Visual Analog Scale): 75
participants; Person two, time 0, 200 mg oral
  Anxiety (Visual Analog Scale): 65
[1]; old rats
  BDNF levels: 793.81 ± 33.85 pg/mL
[1]; young rats
  BDNF levels: 869.04 ± 32.79 pg/mL
dopamine
  dopamine level: 474.42 ± 13.49 ng/L
Male Swiss Albino mice; mice, oral 7 days, scopolamine
  Transfer latency, passive shock avoidance test: 24.25 ± 2.60 s
Male Swiss Albino mice; mouse, in vivo
  Transfer latency faster than control: 9.3%
